Reference: ChEMBL document CHEMBL4630909 (2021)
Calls of active or inactive are those of the source. The calls are words filed in the database; no cut-off is given here.

Tests used:
[1] = target: GABA-A receptor; anion channel; assay: (§1) Cross screening panel; assay type: protein-complex assay
[2] = target: Muscarinic acetylcholine receptor M5 (Homo sapiens) (UniProt P08912); settings: Compound concentration 10.0 uM
[3] = target: Transcription intermediary factor 1-alpha (Homo sapiens, UniProt O15164); assay: TRIM24(PHD,Bromo.) DiscoverX BROMOscan
[4] = target: Histamine H4 receptor (Homo sapiens) (UniProt Q9H3N8); settings: Compound concentration 10.0 uM
[5] = target: Bromodomain and WD repeat-containing protein 1 (Homo sapiens, UniProt Q9NSI6); assay: WDR9(2) DiscoverX BROMOscan
CREB-binding protein = CREB-binding protein (Homo sapiens, UniProt Q92793); assay: CREBBP DiscoverX BROMOscan
[6] = target: Transcription initiation factor TFIID subunit 1 (Homo sapiens, UniProt P21675); assay: TAF1(2) DiscoverX BROMOscan
Protein polybromo-1 = Protein polybromo-1 (Homo sapiens, UniProt Q86U86); assay: PBRM1(5) DiscoverX BROMOscan
[7] = target: cGMP-inhibited 3',5'-cyclic phosphodiesterase 3A (Homo sapiens, UniProt Q14432); assay: as §1
[8] = target: 5-hydroxytryptamine receptor 2C (Homo sapiens, UniProt P28335); assay: as §1
Acetylcholinesterase = Acetylcholinesterase (Homo sapiens, UniProt P22303); assay: as §1
[9] = target: Prostaglandin G/H synthase 2 (Homo sapiens, UniProt P35354); assay: as §1
[10] = target: Acetylcholine receptor subunit alpha (Homo sapiens, UniProt P02708); assay: as §1
Aurora kinase B = Aurora kinase B (Homo sapiens, UniProt Q96GD4); assay: as §1
[11] = target: Kappa-type opioid receptor (Homo sapiens, UniProt P41145); assay: as §1
D(1A) dopamine receptor = D(1A) dopamine receptor (Homo sapiens, UniProt P21728); assay: as §1
[12] = target: Tyrosine-protein kinase Lck (Homo sapiens, UniProt P06239); assay: as §1
[13] = target: Potassium voltage-gated channel subfamily A member 5 (Homo sapiens, UniProt P22460); assay: as §1
[14] = target: Nuclear receptor subfamily 1 group I member 2 (Homo sapiens, UniProt O75469); assay: as §1
[15] = target: Glutamate receptor ionotropic, NMDA 2B (Homo sapiens, UniProt Q13224); assay: as §1
[16] = target: Sodium channel protein type 5 subunit alpha (Homo sapiens, UniProt Q14524); assay: as §1
Cannabinoid receptor 2 = Cannabinoid receptor 2 (Homo sapiens, UniProt P34972); assay: as §1
Adenosine receptor A2a = Adenosine receptor A2a (Homo sapiens, UniProt P29274); assay: as §1
[17] = target: Aryl hydrocarbon receptor (Homo sapiens, UniProt P35869); assay: as §1
[18] = target: Sodium-dependent noradrenaline transporter (Homo sapiens, UniProt P23975); assay: as §1
[19] = target: Beta-2 adrenergic receptor (Homo sapiens, UniProt P07550); assay: as §1
Vasopressin V1a receptor = Vasopressin V1a receptor (Homo sapiens, UniProt P37288); assay: as §1
Histamine H1 receptor = Histamine H1 receptor (Homo sapiens, UniProt P35367); assay: as §1
Mu-type opioid receptor [20] = target: T1, Mu-type opioid receptor (Homo sapiens, UniProt P35372); assay: as §1
D(2) dopamine receptor = D(2) dopamine receptor (Homo sapiens, UniProt P14416); assay: as §1
[21] = target: 3',5'-cyclic-AMP phosphodiesterase 4B (Homo sapiens, UniProt Q07343); assay: as §1
[22] = target: Solute carrier organic anion transporter family member 1B1 (Homo sapiens, UniProt Q9Y6L6); assay: as §1
[23] = target: Alpha-2C adrenergic receptor (Homo sapiens, UniProt P18825); assay: as §1
[24] = target: Sodium-dependent serotonin transporter (Homo sapiens, UniProt P31645); assay: as §1
[25] = target: Amine oxidase [flavin-containing] A (Homo sapiens, UniProt P21397); assay: as §1
[26] = target: 5-hydroxytryptamine receptor 3A (Homo sapiens, UniProt P46098); assay: as §1
[27] = target: Alpha-1B adrenergic receptor (Homo sapiens, UniProt P35368); assay: as §1
[28] = target: 5-hydroxytryptamine receptor 1B (Homo sapiens, UniProt P28222); assay: as §1
[29] = target: Muscarinic acetylcholine receptor M2 (Homo sapiens, UniProt P08172); assay: as §1
[30] = target: 5-hydroxytryptamine receptor 2A (Homo sapiens, UniProt P28223); assay: as §1
[31] = target: Nucleosome-remodeling factor subunit BPTF (Homo sapiens, UniProt Q12830); assay: FALZ DiscoverX BROMOscan
[32] = target: GABA-A receptor; anion channel (Rattus norvegicus) (UniProt O09028+P15431+P18506+P18508+P19969+P20236+P23574+P23576+P28471+P28473+P30191+P62813+P63079+P63138+Q91ZM7+Q9ES14); settings: Compound concentration 10.0 uM
Mu-type opioid receptor [33] = target: T1, Mu-type opioid receptor; settings: Compound concentration 10.0 uM
Peregrin = Peregrin (Homo sapiens, UniProt P55201); assay: BRPF1 DiscoverX BROMOscan
[34] = target: Alpha-1A adrenergic receptor (Homo sapiens) (UniProt P35348); settings: Compound concentration 10.0 uM
C-C motif chemokine 2 = C-C motif chemokine 2 (Homo sapiens, UniProt P13500); assay: In vitro inhibition of MCP-1 in Lipopolysaccharide-stimulated human whole blood; assay type: tissue-based
[35] = target: Alpha-2A adrenergic receptor (Homo sapiens) (UniProt P08913); settings: Compound concentration 10.0 uM
[36] = target: Histone acetyltransferase KAT2B (Homo sapiens, UniProt Q92831); assay: PCAF DiscoverX BROMOscan
[37] = target: Bromodomain-containing protein 1 (Homo sapiens, UniProt O95696); assay: BRD1 DiscoverX BROMOscan
[38] = target: Bromodomain-containing protein 8 (Homo sapiens, UniProt Q9H0E9); assay: BRD8(1) DiscoverX BROMOscan
[39] = target: Bromodomain and PHD finger-containing protein 3 (Homo sapiens, UniProt Q9ULD4); assay: BRPF3 DiscoverX BROMOscan
[40] = target: Beta-3 adrenergic receptor (Homo sapiens) (UniProt P13945); settings: Compound concentration 10.0 uM
[41] = target: Bromodomain-containing protein 9 (Homo sapiens, UniProt Q9H8M2); assay: BRD9 DiscoverX BROMOscan
[42] = target: Histamine H2 receptor (Homo sapiens) (UniProt P25021); settings: Compound concentration 10.0 uM
[43] = target: Alpha-2C adrenergic receptor (Homo sapiens) (UniProt P18825); settings: Compound concentration 10.0 uM

D(2) dopamine receptor, sequence (P14416 whole entry): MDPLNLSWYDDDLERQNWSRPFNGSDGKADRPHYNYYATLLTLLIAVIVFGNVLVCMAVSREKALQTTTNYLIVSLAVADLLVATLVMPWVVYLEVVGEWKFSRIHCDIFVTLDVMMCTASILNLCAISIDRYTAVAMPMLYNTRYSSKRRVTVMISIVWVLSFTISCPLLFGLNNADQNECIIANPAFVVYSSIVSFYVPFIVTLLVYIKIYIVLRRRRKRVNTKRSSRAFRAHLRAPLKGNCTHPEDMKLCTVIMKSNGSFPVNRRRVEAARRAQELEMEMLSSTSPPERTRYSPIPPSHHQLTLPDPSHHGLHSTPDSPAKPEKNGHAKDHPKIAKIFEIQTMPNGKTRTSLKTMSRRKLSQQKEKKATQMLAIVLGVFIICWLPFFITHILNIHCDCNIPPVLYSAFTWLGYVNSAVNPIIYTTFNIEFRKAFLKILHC
5-hydroxytryptamine receptor 2C, sequence (P28335 whole entry): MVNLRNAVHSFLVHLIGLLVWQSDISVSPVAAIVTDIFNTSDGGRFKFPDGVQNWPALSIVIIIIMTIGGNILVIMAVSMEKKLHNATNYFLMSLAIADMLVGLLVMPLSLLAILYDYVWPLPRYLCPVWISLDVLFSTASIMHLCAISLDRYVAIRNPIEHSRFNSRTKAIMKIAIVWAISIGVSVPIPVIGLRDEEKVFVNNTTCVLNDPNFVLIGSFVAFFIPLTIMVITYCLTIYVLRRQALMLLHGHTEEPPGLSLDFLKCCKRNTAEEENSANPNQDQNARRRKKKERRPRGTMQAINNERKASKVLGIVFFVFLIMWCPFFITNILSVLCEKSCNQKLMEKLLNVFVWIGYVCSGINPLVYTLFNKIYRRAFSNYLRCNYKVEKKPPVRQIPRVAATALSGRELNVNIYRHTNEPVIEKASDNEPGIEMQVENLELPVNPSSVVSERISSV
Beta-2 adrenergic receptor, sequence (P07550 whole entry): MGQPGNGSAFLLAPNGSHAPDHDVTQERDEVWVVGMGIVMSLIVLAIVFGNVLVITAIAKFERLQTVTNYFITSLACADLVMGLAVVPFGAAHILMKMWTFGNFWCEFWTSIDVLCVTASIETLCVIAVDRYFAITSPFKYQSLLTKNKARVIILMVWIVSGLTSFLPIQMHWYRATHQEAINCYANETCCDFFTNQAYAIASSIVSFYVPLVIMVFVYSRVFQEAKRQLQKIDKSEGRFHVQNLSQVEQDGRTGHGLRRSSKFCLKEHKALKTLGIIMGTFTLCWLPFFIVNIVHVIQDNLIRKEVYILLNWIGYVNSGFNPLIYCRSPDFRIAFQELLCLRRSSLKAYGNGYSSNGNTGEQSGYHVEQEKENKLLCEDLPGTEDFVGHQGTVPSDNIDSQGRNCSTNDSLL
Acetylcholine receptor subunit alpha, sequence (P02708 whole entry): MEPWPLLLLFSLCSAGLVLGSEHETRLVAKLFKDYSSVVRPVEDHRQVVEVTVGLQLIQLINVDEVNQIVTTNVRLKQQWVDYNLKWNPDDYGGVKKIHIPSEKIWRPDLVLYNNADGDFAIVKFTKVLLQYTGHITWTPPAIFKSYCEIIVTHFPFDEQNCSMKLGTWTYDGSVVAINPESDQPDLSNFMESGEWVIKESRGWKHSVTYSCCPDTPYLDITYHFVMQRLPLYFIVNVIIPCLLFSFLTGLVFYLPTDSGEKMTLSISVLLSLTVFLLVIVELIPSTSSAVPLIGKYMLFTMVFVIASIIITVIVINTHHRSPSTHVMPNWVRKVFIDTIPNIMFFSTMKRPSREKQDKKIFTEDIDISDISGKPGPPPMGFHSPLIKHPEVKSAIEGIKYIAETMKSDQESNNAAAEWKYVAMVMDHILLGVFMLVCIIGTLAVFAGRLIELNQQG
5-hydroxytryptamine receptor 3A, sequence (P46098 whole entry): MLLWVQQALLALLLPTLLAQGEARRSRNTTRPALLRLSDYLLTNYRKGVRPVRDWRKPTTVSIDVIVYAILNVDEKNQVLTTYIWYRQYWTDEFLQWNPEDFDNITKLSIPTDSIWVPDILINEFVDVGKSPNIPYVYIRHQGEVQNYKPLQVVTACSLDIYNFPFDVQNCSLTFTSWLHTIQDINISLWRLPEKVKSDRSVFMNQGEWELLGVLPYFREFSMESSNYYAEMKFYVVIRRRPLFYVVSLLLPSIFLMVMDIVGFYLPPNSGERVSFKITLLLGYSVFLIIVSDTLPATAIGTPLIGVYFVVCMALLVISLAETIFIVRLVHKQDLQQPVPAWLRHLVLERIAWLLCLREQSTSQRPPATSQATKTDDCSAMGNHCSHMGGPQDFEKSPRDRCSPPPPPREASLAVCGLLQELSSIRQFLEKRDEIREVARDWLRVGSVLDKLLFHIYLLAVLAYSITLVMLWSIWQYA
5-hydroxytryptamine receptor 2A, sequence (P28223 whole entry): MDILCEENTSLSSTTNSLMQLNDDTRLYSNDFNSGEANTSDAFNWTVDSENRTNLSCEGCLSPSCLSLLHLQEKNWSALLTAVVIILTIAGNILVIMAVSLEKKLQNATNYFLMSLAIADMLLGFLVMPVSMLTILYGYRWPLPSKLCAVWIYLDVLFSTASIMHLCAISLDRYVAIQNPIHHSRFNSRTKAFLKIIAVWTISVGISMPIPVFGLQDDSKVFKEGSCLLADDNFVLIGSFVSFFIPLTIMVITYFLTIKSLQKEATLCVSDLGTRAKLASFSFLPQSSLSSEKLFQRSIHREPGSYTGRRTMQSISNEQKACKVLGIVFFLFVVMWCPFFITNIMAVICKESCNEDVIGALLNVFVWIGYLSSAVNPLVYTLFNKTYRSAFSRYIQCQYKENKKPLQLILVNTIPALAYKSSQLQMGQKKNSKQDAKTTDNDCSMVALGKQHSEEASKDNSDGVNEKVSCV
T1 sequence (P35372 whole entry): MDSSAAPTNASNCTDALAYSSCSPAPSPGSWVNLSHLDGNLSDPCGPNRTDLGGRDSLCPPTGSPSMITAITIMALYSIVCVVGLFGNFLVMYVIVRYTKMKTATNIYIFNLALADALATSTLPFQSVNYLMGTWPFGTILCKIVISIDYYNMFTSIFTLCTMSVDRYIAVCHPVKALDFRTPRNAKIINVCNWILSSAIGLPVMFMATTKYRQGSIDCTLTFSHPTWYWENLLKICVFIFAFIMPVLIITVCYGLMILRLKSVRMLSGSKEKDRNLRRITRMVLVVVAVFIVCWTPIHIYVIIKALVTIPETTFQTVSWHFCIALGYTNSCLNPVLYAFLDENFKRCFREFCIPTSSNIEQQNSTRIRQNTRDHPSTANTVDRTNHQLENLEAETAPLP
Muscarinic acetylcholine receptor M2, sequence (P08172 whole entry): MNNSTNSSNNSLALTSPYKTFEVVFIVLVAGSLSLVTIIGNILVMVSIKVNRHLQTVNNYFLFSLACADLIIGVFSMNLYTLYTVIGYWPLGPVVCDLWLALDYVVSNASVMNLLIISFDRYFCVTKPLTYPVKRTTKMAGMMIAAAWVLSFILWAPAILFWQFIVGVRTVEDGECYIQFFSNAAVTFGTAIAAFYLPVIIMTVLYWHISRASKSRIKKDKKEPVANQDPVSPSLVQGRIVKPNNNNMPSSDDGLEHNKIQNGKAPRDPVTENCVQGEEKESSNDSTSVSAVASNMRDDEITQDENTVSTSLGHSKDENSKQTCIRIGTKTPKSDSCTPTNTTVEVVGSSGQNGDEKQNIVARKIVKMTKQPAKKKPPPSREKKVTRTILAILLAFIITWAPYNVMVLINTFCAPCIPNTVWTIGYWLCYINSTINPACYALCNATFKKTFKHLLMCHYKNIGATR
5-hydroxytryptamine receptor 1B, sequence (P28222 whole entry): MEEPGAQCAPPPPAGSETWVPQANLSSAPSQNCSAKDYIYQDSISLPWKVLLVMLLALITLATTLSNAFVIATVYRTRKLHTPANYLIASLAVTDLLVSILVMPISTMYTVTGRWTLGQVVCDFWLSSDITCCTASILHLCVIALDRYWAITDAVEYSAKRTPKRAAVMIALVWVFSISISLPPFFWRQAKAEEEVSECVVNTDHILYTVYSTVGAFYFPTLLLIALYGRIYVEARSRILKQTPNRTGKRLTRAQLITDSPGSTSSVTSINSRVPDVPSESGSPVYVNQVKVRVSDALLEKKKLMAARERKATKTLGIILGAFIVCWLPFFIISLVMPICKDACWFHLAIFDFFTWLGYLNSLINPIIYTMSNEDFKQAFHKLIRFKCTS
Prostaglandin G/H synthase 2, sequence (P35354 whole entry): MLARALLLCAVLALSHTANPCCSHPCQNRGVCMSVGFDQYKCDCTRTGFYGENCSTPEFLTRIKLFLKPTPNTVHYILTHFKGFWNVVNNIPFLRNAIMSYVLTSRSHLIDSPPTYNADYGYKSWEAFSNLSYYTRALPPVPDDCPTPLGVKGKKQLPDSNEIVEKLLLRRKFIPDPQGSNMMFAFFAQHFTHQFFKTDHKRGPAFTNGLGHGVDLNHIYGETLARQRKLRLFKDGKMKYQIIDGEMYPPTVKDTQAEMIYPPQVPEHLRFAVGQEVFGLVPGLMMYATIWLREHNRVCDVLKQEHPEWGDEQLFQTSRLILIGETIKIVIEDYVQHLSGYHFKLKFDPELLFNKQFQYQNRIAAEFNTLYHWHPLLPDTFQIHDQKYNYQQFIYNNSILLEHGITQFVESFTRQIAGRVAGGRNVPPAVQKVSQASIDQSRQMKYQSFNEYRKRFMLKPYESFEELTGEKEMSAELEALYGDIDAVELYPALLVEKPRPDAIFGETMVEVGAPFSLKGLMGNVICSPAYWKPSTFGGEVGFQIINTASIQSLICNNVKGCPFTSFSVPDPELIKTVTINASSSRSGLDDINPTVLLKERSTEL
C-C motif chemokine 2, sequence (P13500 whole entry): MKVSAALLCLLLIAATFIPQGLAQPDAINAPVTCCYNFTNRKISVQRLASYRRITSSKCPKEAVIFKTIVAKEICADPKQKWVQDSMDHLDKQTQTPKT

CNC(=O)c1cc(C(=O)NC2CC2)cn(Cc2ccccc2)c1=O [GSK620]
pEC50 [1]: < 4
inhibition [2]: -5.05%
Kd [3]: 31.6 µM
inhibition [4]: 16.1%
Kd [5]: 31.6 µM
Kd (CREB-binding protein): 10 µM
Kd [6]: 3.98 µM
Kd (Protein polybromo-1): 31.6 µM
IC50 [7]: > 100 µM
EC50 [8]: > 25.1 µM
IC50 [8]: > 25.1 µM
IC50 (Acetylcholinesterase): > 100 µM
IC50 [9]: > 100 µM
EC50 [10]: > 50.1 µM
IC50 [10]: > 50.1 µM
IC50 (Aurora kinase B): > 31.6 µM
EC50 [11]: > 100 µM
IC50 (D(1A) dopamine receptor): > 100 µM
IC50 [12]: > 31.6 µM
IC50 [13]: > 50.1 µM
EC50 [14]: > 50.1 µM
IC50 [15]: > 50.1 µM
IC50 [16]: > 100 µM
EC50 (Cannabinoid receptor 2): > 10 µM
EC50 (Adenosine receptor A2a): > 100 µM
EC50 [17]: > 100 µM
IC50 [18]: > 100 µM
EC50 [19]: > 100 µM
IC50 [19]: > 100 µM
IC50 (Vasopressin V1a receptor): > 50.1 µM
IC50 (Histamine H1 receptor): > 25.1 µM
EC50 (Mu-type opioid receptor [20]): > 100 µM
EC50 (D(2) dopamine receptor): > 100 µM
IC50 (D(2) dopamine receptor): > 100 µM
IC50 [21]: > 100 µM
IC50 [22]: > 50.1 µM
EC50 [23]: > 100 µM
IC50 [24]: > 100 µM
IC50 [25]: > 100 µM
EC50 [26]: > 50.1 µM
IC50 [26]: > 50.1 µM
IC50 [27]: > 25.1 µM
EC50 [28]: > 100 µM
IC50 [28]: > 100 µM
EC50 [29]: > 50.1 µM
IC50 [29]: > 50.1 µM
EC50 [30]: > 25.1 µM
IC50 [30]: > 25.1 µM
Kd [31]: 25.1 µM
inhibition [32]: 28.2%
inhibition (Mu-type opioid receptor [33]): 13.5%
Kd (Peregrin): 31.6 µM
inhibition [34]: -0.64%
IC50 (C-C motif chemokine 2): 0.794 µM (active)
inhibition [35]: -4.53%
Kd [36]: 31.6 µM
Kd [37]: 25.1 µM
Kd [38]: 31.6 µM
Kd [39]: 31.6 µM
inhibition [40]: 18.6%
Kd [41]: 31.6 µM
inhibition [42]: -9.14%
inhibition [43]: 0.69%
